# Structures can show the parent of a compound that is named as a salt.
# Experiments:
# [1] = tested on: tobacco mosaic virus (TMV); experiment: Anti-TMV in vitro effect (half-leaf soaking); assay type: cell-based, tobacco mosaic virus (host Nicotiana tabacum L.cv.Xanthi NN); settings: Tobacco mosaic virus, read-out: Relative inhibition rate (%) In vitro activity
# [2] = tested on: tobacco mosaic virus (TMV); experiment: Anti-TMV in vivo inactivation; parameters: species or system tobacco mosaic virus (host Nicotiana tabacum L.cv.Xanthi NN); settings: Tobacco mosaic virus, read-out: Relative inhibition rate (%) In vivo inactivation
# [3] = tested on: tobacco mosaic virus (TMV); experiment: Anti-TMV in vivo therapeutic effect; parameters: species or system tobacco mosaic virus (host Nicotiana tabacum L.cv.Xanthi NN); settings: Tobacco mosaic virus, read-out: Relative inhibition rate (%) In vivo therapy
# [4] = tested on: tobacco mosaic virus (TMV); experiment: Anti-TMV in vivo protective effect; parameters: species or system tobacco mosaic virus (host Nicotiana tabacum L.cv.Xanthi NN); settings: Tobacco mosaic virus, read-out: Relative inhibition rate (%) In vivo protection
# cucumber fusarium wilt = experiment: Fungicidal (bactericidal) activity in vitro, PDA colony diameter; assay type: cell-based; settings: Fusarium, 96 h; 50 mg/kg
# Cercospora arachidicola = experiment: as above; assay type: cell-based; settings: Mycosphaerella arachidis, 96 h; 50 mg/kg
# Macrophoma kawatsukai = experiment: as above; assay type: cell-based; settings: 50 mg/kg
# Alternaria solani = experiment: as above; assay type: cell-based; settings: Alternaria solani, 96 h; 50 mg/kg
# Fusarium graminearumt = experiment: microbe, parasite or virus in culture; assay type: cell-based; settings: Fusarium, 96 h, read-out: Bactericidal activity (%) Fusarium graminearumt
# potato late blight = experiment: microbe, parasite or virus in culture; assay type: cell-based; settings: Phytophthora infestans, 96 h, read-out: Bactericidal activity (%) potato late blight
# Sclerotinia scleotiorum = experiment: Fungicidal (bactericidal) activity in vitro, PDA colony diameter; assay type: cell-based; settings: Sclerotinia, 96 h; 50 mg/kg
# Botrytis cinerea = experiment: as above; assay type: cell-based; settings: Botrytis cinerea, 96 h; 50 mg/kg
# Rhizoctonia solani = experiment: as above; assay type: cell-based; settings: Rhizoctonia solani, 96 h; 50 mg/kg
# Phytophthora capsici = experiment: as above; assay type: cell-based; settings: Phytophthora capsici, 96 h; 50 mg/kg
# Fusarium fujikuroi = experiment: as above; assay type: cell-based; settings: Fusarium fujikuroi, 96 h; 50 mg/kg
# Rhizoctonia cereali = experiment: as above; assay type: cell-based; settings: Rhizoctonia, 96 h; 50 mg/kg
# Bipolaria maydis = experiment: organism not typed; assay type: cell-based; settings: read-out: Bactericidal activity (%) Bipolaria maydis
# [5] = tested on: Colletotrichum orbiculare; experiment: Fungicidal (bactericidal) activity in vitro, PDA colony diameter; assay type: cell-based; settings: Colletotrichum orbiculare, 96 h; 50 mg/kg
# armyworms = assay type: in vivo; settings: concentration 600 mg/kg
# cotton bollworms = experiment: whole plant or invertebrate; settings: Helicoverpa armigera, in Gossypium hirsutum, read-out: Cotton bollworm Mortality (%)
# Method: Experimental method of cotton bollworms: feed and drug mixing method: measure 3 mL of prepared solution and add it to about 27 g of newly prepared feed, thereby obtaining needed concentration through dilution by 10 times.
# mosquito larvae = experiment: whole plant or invertebrate; settings: for mortality at 5 mg/kg / mortality at 10 mg/kg: Culex pipiens, 24 h, read-out: Mosquito larvae Mortality (%)
# In short: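 Compound dissolved in acetone (or other solvent) to a 1000 ppm stock and diluted in water to 5 ppm. Ten Culex pipiens pallens larvae at the start of the fourth instar, laboratory-reared, added per beaker; solvent-only aqueous control.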
# corn borers = experiment: whole plant or invertebrate; settings: read-out: Corn borer Mortality (%)
SMILES,inhibition of growth at 50 mg/kg (cucumber fusarium wilt),inhibition of growth at 50 mg/kg (Cercospora arachidicola),inhibition at 50 mg/kg (Macrophoma kawatsukai),inhibition of growth at 50 mg/kg (Alternaria solani),inhibition of growth at 50 mg/kg (Fusarium graminearumt),inhibition of growth at 50 mg/kg (potato late blight),inhibition of growth at 50 mg/kg (Sclerotinia scleotiorum),inhibition of growth at 50 mg/kg (Botrytis cinerea),inhibition of growth at 50 mg/kg (Rhizoctonia solani),inhibition of growth at 50 mg/kg (Phytophthora capsici),inhibition of growth at 50 mg/kg (Fusarium fujikuroi),inhibition of growth at 50 mg/kg (Rhizoctonia cereali),inhibition at 50 mg/kg (Bipolaria maydis),inhibition of growth at 50 mg/kg [5],Armyworm Mortality (%) (armyworms),mortality at 600 mg/kg (cotton bollworms),mortality at 10 mg/kg (mosquito larvae),mortality at 600 mg/kg (corn borers),inhibition at 100 µg/mL ([1]; treatment dose 100 μg/mL),inhibition at 500 µg/mL ([1]; treatment dose 500 μg/mL),also measured
Cc1nccc2c1[nH]c1cc(O)ccc12 [Harmol],26.9%,46.2%,23.8%,26.3%,23.8%,22.7%,5.9%,9.1%,50%,25%,28.6%,42.1%,31.8%,46.4%,50%,20%,100%,45%,–,–,inhibition at 100 µg/mL [1]: 0%; inhibition at 500 µg/mL [1]: 32.6%; inhibition at 100 µg/mL [2]: 0%; inhibition at 500 µg/mL [2]: 35.1%; inhibition at 100 µg/mL [3]: 0%; inhibition at 500 µg/mL [3]: 30%; inhibition at 100 µg/mL [4]: 9.5%; inhibition at 500 µg/mL [4]: 36.7%; mortality at 5 mg/kg (mosquito larvae): 30%
Cc1nccc2c1[nH]c1ccc([N+](=O)[O-])cc12 [Ia-3],23.8%,7.1%,35.3%,33.3%,50%,25%,56%,54.6%,10.7%,36.4%,42.9%,59.4%,31.6%,23.8%,50%,35%,100%,50%,0%,15.7%,inhibition at 100 µg/mL ([2]; treatment dose 100 μg/mL): 0%; inhibition at 500 µg/mL ([2]; treatment dose 500 μg/mL): 21.5%; inhibition at 100 µg/mL ([3]; treatment dose 100 μg/mL): 0%; inhibition at 500 µg/mL ([3]; treatment dose 500 μg/mL): 18.5%; inhibition at 100 µg/mL ([4]; treatment dose 100 μg/mL): 0%; inhibition at 500 µg/mL ([4]; treatment dose 500 μg/mL): 26.1%; mortality at 5 mg/kg (mosquito larvae): 60%; activity against culex pipiens larvae (in words) (mosquito larvae; at 5 mg/kg): still show high activity
Cc1nccc2c1[nH]c1c([N+](=O)[O-])cccc12 [Ia-4],38.5%,53.9%,35.7%,15.8%,42.9%,27.3%,29.4%,18.2%,42.1%,9.4%,21.4%,50%,36.4%,42.9%,10%,10%,30%,5%,0%,30%,inhibition at 100 µg/mL ([2]; treatment dose 100 μg/mL): 10.5%; inhibition at 500 µg/mL ([2]; treatment dose 500 μg/mL): 36.4%; inhibition at 100 µg/mL ([3]; treatment dose 100 μg/mL): 0%; inhibition at 500 µg/mL ([3]; treatment dose 500 μg/mL): 33.3%; inhibition at 100 µg/mL ([4]; treatment dose 100 μg/mL): 5.8%; inhibition at 500 µg/mL ([4]; treatment dose 500 μg/mL): 30.1%
"Cc1nccc2c1[nH]c1cc(OC(=O)NC(C)C)ccc12 [Ia-5, isopropylamino formate (1-methylpyridino [3,4-b]indol-7)-ester]",34.6%,53.9%,2.4%,21.1%,23.8%,18.2%,9.8%,0%,6.6%,25%,14.3%,36.8%,22.7%,39.3%,10%,15%,30%,10%,0%,31.3%,inhibition at 100 µg/mL ([2]; treatment dose 100 μg/mL): 0%; inhibition at 500 µg/mL ([2]; treatment dose 500 μg/mL): 29.5%; inhibition at 100 µg/mL ([3]; treatment dose 100 μg/mL): 0%; inhibition at 500 µg/mL ([3]; treatment dose 500 μg/mL): 32.7%; inhibition at 100 µg/mL ([4]; treatment dose 100 μg/mL): 5.8%; inhibition at 500 µg/mL ([4]; treatment dose 500 μg/mL): 40.3%
